Among the data in patent US12290544B1, “Essential oil of stems and leaves of Chuzhou chrysanthemum and application thereof” (Chuzhou University, priority 2023, dated 2025) are Bacteriostatic ring diameter and inhibition values, retold here.

Test [1] deals with Staphylococcus aureus. In words: Bacterial inhibition assay (filter paper, bacteriostatic ring). It counts as cell-based. On the procedure: (§1) Cultured Escherichia coli and Staphylococcus aureus are diluted into […] colony forming units per milliliter (CFU/mL) bacterial solution respectively, and evenly spread on a potato dextrose agar (PDA) plate. After standing for 10 min, the filter paper with a diameter of 6 mm made by a punch is spread on the PDA plate, and 6 pieces are evenly placed in each plate. 10 μL of essential oil of stems and leaves of Chuzhou chrysanthemum with a concentration of 5 mg/mL is added with a pipette, and the culture dish is placed in a 37° C. incubator for culture. In the same way, the bacterial inhibition assay of the essential oil of the stems and leaves of Chuzhou chrysanthemum is carried out at the concentrations of 10, 20, 50, and 100 mg/mL. After 16 to 18 h of incubation, a diameter of a bacteriostatic ring (including the piece) is measured with a vernier caliper and recorded. When measuring the bacteriostatic ring, the bacteriostatic ring with uniform and completely sterile growth should be selected, and its diameter should be measured with an outer edge of the bacteriostatic ring as the boundary. Six parallel experiments are performed for each concentration, and the mean and standard deviation are calculated. Ethyl acetate is used as blank control, and streptomycin sulfate and ampicillin are used as positive controls.

For test [2], the system named is Escherichia coli. The description is as above. It counts as cell-based. How it is done: as §1
The mark [3] stands for this setting: positive control 50 ppm, read-out: Inhibitory rate.
[4] abbreviates: positive control 500 ppm, read-out: Inhibitory rate.

Structures can show the parent of a compound that is named as a salt.

For the compound `CC1(C)S[C@@H]2[C@H](NC(=O)[C@H](N)c3ccccc3)C(=O)N2[C@H]1C(=O)O` [Ampicillin], the results for the Bacteriostatic ring diameter in test [1] (positive control 50 ppm) and in test [2] (positive control 50 ppm) were 16.58 ± 1.17C mm and 17.12 ± 0.63B mm, respectively. The inhibition at 50 ppm in test [1] (setting [3]) came to 53.2 ± 3.03%; in test [2] (setting [3]), 54.8 ± 1.66%.
As for `[H]/N=C(/N)N[C@H]1[C@H](O)[C@@H](O)[C@H](O[C@@H]2O[C@@H](C)[C@](O)(C=O)[C@H]2O[C@@H]2O[C@@H](CO)[C@H](O)[C@@H](O)[C@@H]2NC)[C@@H](N/C(N)=N\[H])[C@@H]1O` [Streptomycin sulfate], the Bacteriostatic ring diameter in test [1] (positive control 500 ppm) turned out to be 18.10 ± 0.48B mm; in test [2] (positive control 500 ppm), 15.98 ± 0.43C mm. Further, the inhibition at 500 ppm in test [1] (setting [4]) came out at 57.3 ± 1.13%; in test [2] (setting [4]), 51.6 ± 1.3%.
